Columns and labels:
[1] = system: Rat C6 glioma (ATCC No. CCL107); test: Anti-inflammatory activity: isoproterenol-induced cAMP synthesis (ELISA); assay type: cell-based; settings: cAMP after 30 min, induced by (−)-isoproterenol; for IC50: Rattus norvegicus, C6 glioma, 0.5 h, read-out: I50
Procedure: Anti-inflammatory activity of several of the substituted 6-anilinopurine derivatives of this invention was determined; kinetin was also evaluated as a control. Rat C6 glioma (ATCC No. CCL107) was cultivated in monolayer in serum-free chemically defined medium containing Ham's F10/minimal essential medium (1:1 v/v), 2 mM L-glutamine, 1% (v/v) minimal essential medium vitamins (100×), 1% (v/v) minimal essential medium nonessential amino acids (100×), 100 U/ml penicillin, […], and 30 nM sodium selenite. Incubation was performed at 37° C. in a 100% humidified atmosphere. The assays were performed in the logarithmic growth phase at a density of 2.5×10^5 cells/cm^2. Intracellular cAMP synthesis was induced by addition of 5 mM (−)-isoproterenol; various amounts of test compounds were added at the same time as the (−)-isoproterenol. After 30 min incubation, the cellular amount of cAMP was determined using ELISA (cAMP-enzyme immunoassay kit from Amersham). The I50 values were determined from the dose-response curve in duplicate.

AHK3 = biological target: T1, AHK3 (Arabidopsis thaliana, UniProt Q9C5U1); test: Activation of cytokinin receptors (E. coli KMI001 beta-galactosidase reporter); assay type: cell-based; settings: 28 h incubation; n.a. means no activation
T1 sequence (Q9C5U1 1-1036): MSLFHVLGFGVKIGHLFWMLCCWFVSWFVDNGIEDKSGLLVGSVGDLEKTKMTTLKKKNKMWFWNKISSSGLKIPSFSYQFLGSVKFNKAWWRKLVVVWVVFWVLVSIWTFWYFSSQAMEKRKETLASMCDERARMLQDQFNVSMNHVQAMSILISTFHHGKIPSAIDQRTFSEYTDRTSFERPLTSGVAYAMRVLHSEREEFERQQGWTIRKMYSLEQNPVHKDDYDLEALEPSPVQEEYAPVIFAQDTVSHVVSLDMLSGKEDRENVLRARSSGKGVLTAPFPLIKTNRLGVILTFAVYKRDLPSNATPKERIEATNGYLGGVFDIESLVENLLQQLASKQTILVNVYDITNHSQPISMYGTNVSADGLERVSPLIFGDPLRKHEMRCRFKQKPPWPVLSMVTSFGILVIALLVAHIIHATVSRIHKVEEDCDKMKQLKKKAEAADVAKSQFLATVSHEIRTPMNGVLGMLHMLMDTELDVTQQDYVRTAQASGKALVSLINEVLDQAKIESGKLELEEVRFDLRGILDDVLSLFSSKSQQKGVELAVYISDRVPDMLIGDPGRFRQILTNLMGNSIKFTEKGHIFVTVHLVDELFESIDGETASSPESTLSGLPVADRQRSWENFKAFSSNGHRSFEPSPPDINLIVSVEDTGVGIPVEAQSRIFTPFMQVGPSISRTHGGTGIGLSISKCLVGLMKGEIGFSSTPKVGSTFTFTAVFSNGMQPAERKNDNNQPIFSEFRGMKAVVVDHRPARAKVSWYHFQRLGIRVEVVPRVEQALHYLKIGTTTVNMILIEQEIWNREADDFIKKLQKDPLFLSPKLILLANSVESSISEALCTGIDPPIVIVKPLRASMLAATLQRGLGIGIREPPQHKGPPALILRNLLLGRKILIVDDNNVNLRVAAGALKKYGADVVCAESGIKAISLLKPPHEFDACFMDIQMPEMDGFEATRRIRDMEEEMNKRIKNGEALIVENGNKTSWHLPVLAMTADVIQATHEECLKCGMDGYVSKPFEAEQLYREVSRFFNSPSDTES
How it was run: (§1)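 E. coli KMI001 carrying the receptor plasmid was grown in M9 + 0.1% casamino acids at 25 °C, diluted 1:600 and treated with compound (stock solutions 10^-7–5×10^-5 M). Supernatant β-galactosidase was read by 4-methylumbelliferyl galactoside hydrolysis (1 h, 37 °C, Na2CO3 stop). EC50 came from dose-response curves, triplicate means.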

recombinant AtCKX2 = biological target: T2, recombinant AtCKX2 (Arabidopsis thaliana, UniProt Q9FUJ3); test: Inhibition of cytokinin oxidase/dehydrogenase activity (PMS/MTT microtitre plate assay); assay type: biochemical; settings: 30 μM iP as substrate, pH 7.4, 37° C.; means of three replicates; read-out: IC50, inhibition of recombinant AtCKX2
T2 sequence (Q9FUJ3 23-501): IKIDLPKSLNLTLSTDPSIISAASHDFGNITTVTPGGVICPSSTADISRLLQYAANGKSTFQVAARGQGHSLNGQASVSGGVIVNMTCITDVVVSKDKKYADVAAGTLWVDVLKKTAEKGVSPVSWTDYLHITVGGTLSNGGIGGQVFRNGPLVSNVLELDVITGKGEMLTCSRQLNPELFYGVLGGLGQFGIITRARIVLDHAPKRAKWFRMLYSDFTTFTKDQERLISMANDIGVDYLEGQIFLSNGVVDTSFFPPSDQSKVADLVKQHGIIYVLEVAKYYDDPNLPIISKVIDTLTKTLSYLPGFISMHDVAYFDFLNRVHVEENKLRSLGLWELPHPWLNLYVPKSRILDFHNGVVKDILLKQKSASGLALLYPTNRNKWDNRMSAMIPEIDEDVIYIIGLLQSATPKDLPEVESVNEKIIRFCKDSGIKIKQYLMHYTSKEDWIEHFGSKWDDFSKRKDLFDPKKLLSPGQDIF
Procedure: IC50 determinations were done using the assay in microtitre plate. Each well contained 100 μL of PMS/MTT [phenazine methosulfate/3-(4,5-dimethylthiazol-2-yl)-2,5-diphenyltetrazolium bromide] reaction mixture (final concentrations: 0.1 M KH2PO4, pH 7.4, 1 mM MTT, 0.2 mM PMS) containing the tested compound (3×10^−7 M-3×10^−4 M) and 30 μM N^6-isopentenyladenine (iP) as a substrate. 100 μL of cell-free growth medium of S. cerevisiae strain 23344c ura^− harboring the plasmid pYES2-AtCKX2 was directly used as a source of AtCKX2. Plates were incubated in the dark for […] at 37° C. and the enzymatic reaction was stopped by 25 μL of 35% acetic acid. The absorbance at 578 nm was measured using spectrophotometer Tecan. Absorbance of the sample without iP was subtracted.
The IC50 value, the compound concentration that inhibits the enzyme activity to 50%, was calculated from the obtained dose response curves. The values shown in Table 9 are means of three replicates and the entire test was repeated at least twice.

[2] = system: cytokinin-dependent tobacco callus Nicotiana tabacum L. cv. Wisconsin 38; test: Tobacco callus biotest (plant cell division); assay type: cell-based; settings: at the concentration with highest activity, relative to 10^−5 M kinetin
CRE1/AHK4 = CRE1/AHK4 (Arabidopsis thaliana, UniProt Q9C5U0); test: Activation of cytokinin receptors (E. coli KMI001 beta-galactosidase reporter); assay type: cell-based; settings: 17 h incubation; n.a. means no activation
How it was run: as §1

[3] = system: Amaranthus caudatus cotyledon/hypocotyl explants; test: Amaranthus bioassay (betacyanin content); assay type: cell-based, Amaranthus caudatus var. atropurpurea; settings: at the concentration with highest activity, relative to 10^−5 M kinetin
How it was run: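 Etiolated A. caudatus cotyledon/hypocotyl explants (72 h seedlings, roots removed) incubated 48 h at 25 °C in darkness on medium with phosphate buffer pH 6.8, tyrosine and test compound. Betacyanin extracted in acetic acid, quantified as A537−A620.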

Sequence of CRE1/AHK4 (Q9C5U0 whole entry): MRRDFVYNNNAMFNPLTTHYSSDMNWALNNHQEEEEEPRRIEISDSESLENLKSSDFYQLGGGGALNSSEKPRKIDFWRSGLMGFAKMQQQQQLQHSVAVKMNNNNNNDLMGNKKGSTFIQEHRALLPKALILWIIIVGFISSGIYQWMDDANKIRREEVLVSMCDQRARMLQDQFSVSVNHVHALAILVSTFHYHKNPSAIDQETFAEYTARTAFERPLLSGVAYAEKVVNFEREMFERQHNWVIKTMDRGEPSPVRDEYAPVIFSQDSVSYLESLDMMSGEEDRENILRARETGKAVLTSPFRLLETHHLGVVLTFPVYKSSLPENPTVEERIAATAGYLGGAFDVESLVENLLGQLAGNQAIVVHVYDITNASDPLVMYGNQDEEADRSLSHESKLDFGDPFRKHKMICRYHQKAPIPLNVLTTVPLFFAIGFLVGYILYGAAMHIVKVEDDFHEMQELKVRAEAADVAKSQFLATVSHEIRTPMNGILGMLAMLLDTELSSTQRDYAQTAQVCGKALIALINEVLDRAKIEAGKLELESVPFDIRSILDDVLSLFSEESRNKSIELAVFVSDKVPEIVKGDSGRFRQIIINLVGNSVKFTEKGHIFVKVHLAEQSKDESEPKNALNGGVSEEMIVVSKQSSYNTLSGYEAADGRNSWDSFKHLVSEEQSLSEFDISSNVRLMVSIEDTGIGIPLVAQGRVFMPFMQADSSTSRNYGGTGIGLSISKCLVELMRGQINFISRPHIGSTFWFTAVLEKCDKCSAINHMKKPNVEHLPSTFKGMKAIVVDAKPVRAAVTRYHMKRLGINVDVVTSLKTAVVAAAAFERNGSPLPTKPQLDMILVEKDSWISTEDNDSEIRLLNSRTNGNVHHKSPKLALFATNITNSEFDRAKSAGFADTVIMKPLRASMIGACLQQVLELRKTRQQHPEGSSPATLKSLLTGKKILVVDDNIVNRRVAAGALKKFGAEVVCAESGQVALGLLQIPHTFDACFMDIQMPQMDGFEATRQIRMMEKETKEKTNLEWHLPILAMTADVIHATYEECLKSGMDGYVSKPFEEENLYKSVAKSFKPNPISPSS

Row | IC50 [1] | EC50 (AHK3) | IC50 (recombinant AtCKX2) | EC50 (CRE1/AHK4) | Structure (SMILES) | Effect (anti-inflammatory activity) [1] | Activity (%) [10^−5 mol · l^−1 K = 100%] [2] | Activity (%) [10^−5 mol · l^−1 K = 100%] [3]
1 | 11 µM |  |  |  | COc1cc(CNc2nc(Cl)nc3nc[nH]c23)cc(OC)c1 [2-chloro-6-(3,5-dimethoxybenzylamino)purine] | Inhibition |  | 
2 | 7 µM |  |  |  | COc1cccc(CNc2nc(Cl)nc3nc[nH]c23)c1 [2-chloro-6-(3-methoxybenzylamino)purine] | Inhibition |  | 
3 | 25 µM | 31.7 µM |  |  | Oc1ccccc1Nc1nc(Cl)nc2nc[nH]c12 [Compound 8, 2-chloro-6-(2-hydroxyanilino)purine] | Inhibition |  | 
4 |  | 27 µM | 27 µM | 39.8 µM | Fc1nc(Nc2ccc(Cl)cc2)c2nc[nH]c2n1 [Compound 43] |  | 130% | 102.6%

From patent publication US8222260B2, “Substituted 6-anilinopurine derivatives as inhibitors of cytokinin oxidase/dehydrogenase and preparations containing these derivatives” (Univerzita Palackego V Olomouci, priority 2007, dated 2012)
